Data from patent publication US11504395B2, “Oral pyrophosphate for use in reducing tissue calcification” (Stichting Het Nederlands Kanker Instituut-Antoni van …, priority 2016, dated 2022).
Where two headings read alike, the source gives them in different places.

How the values were obtained:
[1] = test system: Tiptoe walking (ttw) mice
Procedure: (§1) All animals were housed in approved animal facilities at the Research Center for Natural Sciences, Hungarian Academy of Sciences. Mice were kept under routine laboratory conditions with 12 hour light-dark cycle with ad libitum access to water and chow. The RCNS, Hungarian Academy of Sciences Institutional Animal Care and Use Committees approved this study. Experiments have been conducted according to national guidelines. Cryo injury was performed and tissue calcium content was determined as described by Brampton, et al. ((2014) Am J Pathol. 184, 159-70). Calcification of the vibrissae was studied by histochemistry following the method described Klement, et al. ((2005) Mol Cell Biol. 25, 8299-310. The number of calcified vibrissae (hair capsules) was counted independently and the onset of tiptoe walking phenotype was determined by two investigators in a blinded fashion.
Tiptoe walking (ttw) mice have an inactivating mutation in Enpp1 and represent a model for GACI.

Abcc6−/− mice = test system: Abcc6−/− mice
Procedure: The calcium content of heart tissue was determined.
as §1
Abcc6^−/− mice faithfully recapitulate human PXE, with calcifying lesions found in skin, eyes and blood vessels. A drawback of the Abcc6^−/− mice is the relatively late onset of the first lesions, making this model less convenient for rapid screening of new treatments.

For `O.O.O.O.O.O.O.O.O.O.O=P([O-])([O-])OP(=O)([O-])[O-].[Na+].[Na+].[Na+].[Na+]` [PPi, Sodium pyrophosphate tetrabasic decahydrate], the “calcification of the dermal sheet surrounding the vibrissae” value ([1]; 10 mM oral PPi during pregnancy and lactation and continued in pups after weaning, ttw mice, FIG. 3) was “greatly reduced”, the “calcification of the dermal sheet surrounding the vibrissae” value ([1]; PPi provided during lactation, ttw mice) was “no significant impact” and the “calcification of the dermal sheet surrounding the vibrissae” value ([1]; ttw pups treated with PPi only after weaning) was “no different from the control-treated group”. The “cardiac calcification (ICC) induced by cryo-injury” value (Abcc6−/− mice; IP delivery, 6 mg PPi/kg body weight for 7 days, Abcc6−/− mice, data not shown) was “reduced” and the “PPi concentration giving maximal inhibition of ICC” value (Abcc6−/− mice; PPi in drinking water, dose-dependent inhibition, FIG. 1) was 10 mM.
